Reference: PubChem BioAssay (NCI)
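Cultured in 96-well plates, cells were exposed to test compound for 48 hours across five concentrations. TGI is the concentration that stops growth completely.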

Assays:
Experiment in all cases: growth of human tumour cells (NCI), 48 h
[1] = tested on: M14 melanoma
[2] = tested on: DLD-1 colon
[3] = tested on: SK-MEL-2 melanoma
[4] = tested on: HL-60(TB) leukemia
[5] = tested on: HCC-2998 colon
[6] = tested on: SR leukemia
[7] = tested on: SW-620 colon
[8] = tested on: LXFL 529 NSCLC
[9] = tested on: A498 renal
[10] = tested on: M19-MEL melanoma
[11] = tested on: KM12 colon
[12] = tested on: U251 CNS
[13] = tested on: HOP-62 NSCLC
[14] = tested on: HT29 colon
[15] = tested on: RXF 393 renal
[16] = tested on: NCI-H226 lung
[17] = tested on: UO-31 renal
[18] = tested on: CCRF-CEM leukemia
[19] = tested on: SK-OV-3 ovarian
[20] = tested on: HCT-116 colon
[21] = tested on: RPMI-8226 leukemia
[22] = tested on: LOX IMVI melanoma
[23] = tested on: DMS 114 small cell lung
[24] = tested on: NCI-H460 lung
[25] = tested on: DMS 273 small cell lung
[26] = tested on: HOP-18 NSCLC
[27] = tested on: SF-268 CNS
[28] = tested on: OVCAR-4 ovarian
[29] = tested on: NCI-H522 lung
[30] = tested on: COLO 205 colon
[31] = tested on: ACHN renal
[32] = tested on: 786-0 renal
[33] = tested on: SN12C renal
[34] = tested on: OVCAR-8 ovarian
[35] = tested on: UACC-257 melanoma
[36] = tested on: SK-MEL-28 melanoma
[37] = tested on: KM20L2 colon
[38] = tested on: OVCAR-3 ovarian
[39] = tested on: MOLT-4 leukemia
[40] = tested on: HCT-15 colon
[41] = tested on: SNB-75 CNS
[42] = tested on: HOP-92 NSCLC
[43] = tested on: MALME-3M melanoma
[44] = tested on: NCI-H23 lung
[45] = tested on: TK-10 renal
[46] = tested on: SNB-78 CNS
[47] = tested on: K-562 leukemia
[48] = tested on: IGROV1 ovarian
[49] = tested on: A549 NSCLC
[50] = tested on: XF 498 CNS
[51] = tested on: SF-539 CNS
[52] = tested on: UACC-62 melanoma
[53] = tested on: SNB-19 CNS
[54] = tested on: SF-295 CNS
[55] = tested on: EKVX NSCLC
[56] = tested on: SK-MEL-5 melanoma
[57] = tested on: OVCAR-5 ovarian
[58] = tested on: CAKI-1 renal

CCOC(=O)C(Cc1ccc([N+](=O)[O-])cc1)NC(=O)CC1c2ccccc2-c2ccccc21 (stereo not given)
TGI [1]: 57.9 µM | TGI [2]: > 100 µM | TGI [3]: > 100 µM | TGI [4]: > 100 µM | TGI [5]: > 100 µM | TGI [6]: > 100 µM | TGI [7]: > 100 µM | TGI [8]: > 100 µM | TGI [9]: > 100 µM | TGI [10]: 38.9 µM | TGI [11]: > 100 µM | TGI [12]: > 100 µM | TGI [13]: > 100 µM | TGI [14]: > 100 µM | TGI [15]: 41.6 µM | TGI [16]: > 100 µM | TGI [17]: > 100 µM | TGI [18]: > 100 µM | TGI [19]: > 100 µM | TGI [20]: > 100 µM | TGI [21]: > 100 µM | TGI [22]: > 100 µM | TGI [23]: > 100 µM | TGI [24]: > 100 µM | TGI [25]: > 100 µM | TGI [26]: > 100 µM | TGI [27]: > 100 µM | TGI [28]: > 100 µM | TGI [29]: > 100 µM | TGI [30]: > 100 µM | TGI [31]: 45.1 µM | TGI [32]: > 100 µM | TGI [33]: > 100 µM | TGI [34]: > 100 µM | TGI [35]: 91.5 µM | TGI [36]: > 100 µM | TGI [37]: > 100 µM | TGI [38]: > 100 µM | TGI [39]: > 100 µM | TGI [40]: > 100 µM | TGI [41]: 68.8 µM | TGI [42]: 56.5 µM | TGI [43]: 42.3 µM | TGI [44]: > 100 µM | TGI [45]: > 100 µM | TGI [46]: 65.3 µM | TGI [47]: > 100 µM | TGI [48]: > 100 µM | TGI [49]: > 100 µM | TGI [50]: 53.6 µM | TGI [51]: 77.4 µM | TGI [52]: > 100 µM | TGI [53]: > 100 µM | TGI [54]: > 100 µM | TGI [55]: > 100 µM

Cc1cccc(-c2nnc3s/c(=C\c4ccc5c(c4)OCO5)c(=O)n23)c1
TGI [1]: > 100 µM | TGI [2]: > 100 µM | TGI [3]: > 100 µM | TGI [4]: > 100 µM | TGI [5]: > 100 µM | TGI [7]: > 100 µM | TGI [8]: > 100 µM | TGI [9]: > 100 µM | TGI [10]: > 100 µM | TGI [11]: > 100 µM | TGI [12]: > 100 µM | TGI [13]: > 100 µM | TGI [15]: > 100 µM | TGI [16]: > 100 µM | TGI [17]: > 100 µM | TGI [18]: > 100 µM | TGI [19]: > 100 µM | TGI [20]: > 100 µM | TGI [21]: > 100 µM | TGI [56]: > 100 µM | TGI [22]: > 100 µM | TGI [23]: > 100 µM | TGI [24]: > 100 µM | TGI [25]: > 100 µM | TGI [26]: > 100 µM | TGI [27]: > 100 µM | TGI [28]: > 100 µM | TGI [29]: > 100 µM | TGI [30]: > 100 µM | TGI [31]: > 100 µM | TGI [32]: > 100 µM | TGI [33]: > 100 µM | TGI [34]: > 100 µM | TGI [57]: > 100 µM | TGI [35]: > 100 µM | TGI [36]: > 100 µM | TGI [37]: > 100 µM | TGI [38]: > 100 µM | TGI [58]: > 100 µM | TGI [39]: > 100 µM | TGI [40]: > 100 µM | TGI [41]: > 100 µM | TGI [42]: > 100 µM | TGI [43]: > 100 µM | TGI [44]: > 100 µM | TGI [45]: > 100 µM | TGI [46]: > 100 µM | TGI [47]: > 100 µM | TGI [48]: > 100 µM | TGI [49]: > 100 µM | TGI [50]: > 100 µM | TGI [51]: > 100 µM | TGI [52]: > 100 µM | TGI [53]: > 100 µM | TGI [54]: > 100 µM | TGI [55]: > 100 µM

CC(=O)N(C)c1ccc2ncccc2c1[N+](=O)[O-]
TGI [1]: > 100 µM | TGI [2]: > 100 µM | TGI [3]: > 100 µM | TGI [4]: > 100 µM | TGI [5]: > 100 µM | TGI [6]: > 100 µM | TGI [7]: > 100 µM | TGI [8]: > 100 µM | TGI [9]: > 100 µM | TGI [10]: > 100 µM | TGI [11]: > 100 µM | TGI [13]: > 100 µM | TGI [14]: > 100 µM | TGI [15]: > 100 µM | TGI [16]: > 100 µM | TGI [17]: > 100 µM | TGI [18]: > 100 µM | TGI [20]: > 100 µM | TGI [21]: > 100 µM | TGI [56]: > 100 µM | TGI [22]: > 100 µM | TGI [23]: > 100 µM | TGI [24]: > 100 µM | TGI [25]: > 100 µM | TGI [26]: > 100 µM | TGI [27]: > 100 µM | TGI [28]: > 100 µM | TGI [31]: > 100 µM | TGI [32]: > 100 µM | TGI [33]: > 100 µM | TGI [34]: > 100 µM | TGI [57]: > 100 µM | TGI [35]: > 100 µM | TGI [36]: > 100 µM | TGI [37]: > 100 µM | TGI [38]: > 100 µM | TGI [58]: > 100 µM | TGI [39]: > 100 µM | TGI [40]: > 100 µM | TGI [41]: > 100 µM | TGI [42]: > 100 µM | TGI [43]: > 100 µM | TGI [44]: > 100 µM | TGI [45]: > 100 µM | TGI [46]: > 100 µM | TGI [47]: > 100 µM | TGI [48]: > 100 µM | TGI [49]: > 100 µM | TGI [50]: > 100 µM | TGI [51]: > 100 µM | TGI [52]: > 100 µM | TGI [53]: > 100 µM | TGI [54]: > 100 µM | TGI [55]: > 100 µM
